According to PubChem BioAssay (NCI):
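Exposure lasted 48 hours, with cells grown in 96-well plates and compounds tested at five concentrations. At the TGI there is no net growth.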

What was measured:
Assay in all cases: NCI tumour cell line growth inhibition, 48 h
HOP-18 NSCLC = test system: HOP-18 NSCLC
XF 498 CNS = test system: XF 498 CNS
SNB-78 CNS = test system: SNB-78 CNS
RXF-631 renal = test system: RXF-631 renal
DMS 273 small cell lung = test system: DMS 273 small cell lung
KM20L2 colon = test system: KM20L2 colon
DLD-1 colon = test system: DLD-1 colon
SN12K1 renal = test system: SN12K1 renal
P388/ADR leukemia = test system: P388/ADR leukemia
BT-549 breast = test system: BT-549 breast
MDA-N = test system: MDA-N
P388 leukemia = test system: P388 leukemia

SMILES	TGI (HOP-18 NSCLC)	TGI (XF 498 CNS)	TGI (SNB-78 CNS)	TGI (RXF-631 renal)	TGI (DMS 273 small cell lung)	TGI (KM20L2 colon)	TGI (DLD-1 colon)	TGI (SN12K1 renal)	TGI (P388/ADR leukemia)	TGI (BT-549 breast)	TGI (MDA-N)	TGI (P388 leukemia)
COc1ccc(/C=C/c2cc(OC)c(OC)c(OC)c2)cc1	> 100 µM	8.6 µM	52.9 µM	> 89.9 µM	> 100 µM	7.84 µM	> 100 µM					
c1cncc(C2N3CCCCC3[C@@H]3c4[nH]c5ccccc5c4CCN23)c1 (some centres not stated)	> 100 µM	> 100 µM	> 100 µM	> 100 µM	> 100 µM	> 100 µM	> 100 µM					
O=S(=O)(/C=C/c1ccc(F)cc1)Cc1ccc(CS(=O)(=O)/C=C/c2ccc(F)cc2)cc1	> 100 µM	> 100 µM	> 100 µM	> 100 µM	> 100 µM	> 100 µM	> 100 µM					
Cc1ccccc1C1OC(=O)c2ccc3ccccc3c21 (configuration not stated)	25.2 µM	9.69 µM	98.3 µM	3.23 µM	12.4 µM	15.8 µM	16.8 µM					
Cc1ccc2c(c1)-c1c3c(nn1-c1ccccc1)-c1ccccc1SC3O2 (configuration not stated)	> 100 µM	> 100 µM	> 100 µM	16.1 µM	> 100 µM	> 100 µM	> 100 µM					
O=c1cnn(C2OC(CO)C(O)C2O)c(=S)[nH]1 (configuration not stated)	> 100 µM	> 100 µM	> 100 µM	> 100 µM	> 100 µM	> 100 µM	> 100 µM	> 100 µM	6.27 µM	> 100 µM	> 100 µM	11.2 µM
